Measured values from EP2310009B1, “PARENTERAL AND ORAL FORMULATIONS OF BENZIMIDAZOLES” (UNIVERSITY OF HOUSTON, priority 2008, dated 2010).

Tests used:
[1] = Mebendazole release from SNEDDS, SEDDS, cosolvent and unformulated suspension; assay type: physicochemical; details: 60 minutes; unformulated drug in release media with placebo SNEDDS
Text: Each point represents the mean ± SD of three independent determinations.
The asterisk* depicts significance between groups compared after analysis by ANOVA using Tukey's post-hoc test, at a threshold of significance at p<0.05.

human plasma protein = details: cited from earlier work

## COC(=O)Nc1nc2ccc(C(=O)c3ccccc3)cc2[nH]1 [MZ, methyl 5-benzoylbenzimidazole-2-carbamate]
[1]
  extent of drug release: 1.10%
Human plasma protein
  drug bound to human plasma protein: about 90%
